Experimental data: patent US8367620B2, “Peptidic growth hormone secretagogues analog compounds and preparations thereof” (Centro de Ingenieria Genetica y Biotecnologia, priority 2006, dated 2013)
pIC50: −log10 of the molar value. Where two headings read alike, the source gives them in different places. Where a SMILES comes first, the peptide text is derived from it. Bridges are numbered along the chain shown (N, C = ends). Where no end group is shown, it is not given here.

What was measured:
[1] = system: PC12 cells; type: cell-based
Experimental: PC12 cells were stored in 75 cm^2 culture flasks on DMEM containing 5% bovine foetal serum and 10% horse serum, with 50 μg/ml gentamicin. Cells were incubated at 37° C. in 5% CO2. To induce differentiation cells were transferred at a density of 1×10^4 to polylysine covered 96 well plates in NGF supplemented DMEM media for 7 days, with medium replacement every 2-3 days. After differentiation cells were incubated with peptidic GHS analog compounds, at different concentrations for 72 h. Cell survival and proliferation was determined using the Promega non-radioactive cytotoxicity proliferation assay, Cell Titer 96, based in the conversion of 3-(4,5-dimethylthiazole-2-yl)-2,5-diphenyltetrazolium bromide (MTT) in to a spectrophotometrically detectable product. After deprivation of NGF medium is removed and 15 μl of the DMEM dissolved dye is added, after 4 hours of 37° C. incubation 100 μl of the stopping solution is added and absorbance is measured at 570 nm

[2] = system: primary cultures of granular cerebellum cells; type: cell-based, Wistar rats
Experimental: Primary cultures of granular cerebellum cells were obtained from 7-9 days Wistar rats. After a rapid dissection, rat cerebellums were submerged in a cold solution and meningeal membranes were removed, each organ was transferred to a 2-3 ml fresh medium solution and finely sliced. Cells were dissociated using a Pasteur pipette and filtered through a nylon […] membrane (Falcon, Franklin Lakes, N.J.). The number of viable cells was determined by cell counting in a hematocytometer with tripan blue as a marker. Cells were cultured on polylysine covered 96 well plates at a density of 6250 cells in […] final volume. Cultures were kept at 37° C. in 5%. CO2 after 24 h, 10 μM of cytosine arabinofuranose (AraC; Sigma) was added to inhibit the proliferation of non-neuronal cells. The capacity of neural damage prevention was tested adding 500 μM hydrogen peroxide in different concentrations of peptidic GHS analog compounds, Cell survival was determined using the Promega non-radioactive cytotoxicity proliferation assay, Cell Titer 96 (Promega).

[3] = system: IGF-I mRNA; experiment: IGF-I mRNA in liver and GH level of intraperitoneally injected tilapias; type: in vivo, tilapia; details: liver of intraperitoneally injected tilapias
Experimental: IGF-I mRNa was determined in the liver of intraperitoneally injected tilapias monitoring also the GH level time course, showing the peptidic GHS analog compounds as able to stimulate in fish the GH levels in the bloodstream and at incrementing the IGF-I mRNA levels after the injection of the compounds as shown in table 4.

[4] = system: tilapias; experiment: Growth acceleration on juvenile tilapias treated intraperitoneally; type: in vivo; details: juvenile tilapia, ip 0.1 μg/g twice a week, three weeks
Experimental: The compounds were dissolved in a sodium phosphate (PBS) buffer solution and injected twice a week, during three weeks at 0.1 μg/g of humid fish weight (gbw). Compounds were applied individually to a group of 10 male tilapias with an average weight of 60.41±10.36 g and a control group with an average weight of 60.58±19.67 g was receiving PBS only as a control, measuring the average weight every week, all animals in the experiment were labelled with microchips (Stoelting Co. Wood Dale, USA.). for proper identification.

[5] = system: tilapia Oreochromis sp. larvae; experiment: Growth stimulation of tilapia larvae by immersion; type: in vivo; details: immersion 100 μg/L, one hour twice a week, three weeks
Experimental: (§1) Growth stimulation experiments on tilapia Oreochromis sp. larvae were performed evaluating groups of 100 larvae with 0.01 g average, using the peptidic GHS analogs, in a 100 μg/L concentration, twice a week using an immersion time of one hour.

[6] = system: lysozyme; experiment: Lysozyme levels in tilapia larvae treated by immersion; type: in vivo, Oreochromis sp.; details: immersion 100 μg/L
Experimental: as §1
During this experiment lysozyme levels were also monitored and an increase of this immunity marker was obtained in the treated animals as shown in table 8.

[7] = system: Litopenaeus vanamei; experiment: Growing of shrimp larvae by dipping in solution of the compounds; type: in vivo; details: four dips of one hour every three days, 0.1 g/L
Experimental: (§2) Shrimp larvae were subjected two four dips, for one hour every three days with different peptidic GHS analogs at 0.1 g/L. The control group was subjected to the same frequency of dipping with 1 mg/L BSA.

[8] = system: Litopenaeus vanamei; experiment: Shrimp dipping experiment in production conditions; type: in vivo
Experimental: as §2
This experiment was also performed in production conditions for compounds A221, A228 y A233, with a 20% of higher survival compared with the controls, keeping a stimulation of 110% on the weight and 30% in the size, showing on the treated animals a better homogeneity on the size distribution with only a 30% and a 8% of variation coefficient in weight and size respectively, on contras with a 77% and 30% in the non treated group.

[9] = system: Post-larvae of Litopenaeus vanamei; experiment: Growth stimulation in shrimps by dietary supplementation; type: in vivo; details: compound at 1% in post-larvae crustacean diet
Experimental: The peptidic GHS analogs were included at 1% in a post-larvae crustacean diet. Post-larvae of Litopenaeus vanamei were fed with the aforementioned diet in parallel with a control group with 1% BSA addition. The effect was measured with an optical micrometer and weighing the animals in a 0.1 mg precision scale.

[10] = system: Litopenaeus vanamei post-larvae; experiment: Growth of shrimp post-larvae fed Artemia-bioencapsulated compounds; type: in vivo; details: Artemia bioencapsulated (10 mh/L, one hour), fed four times a day for one month
Experimental: The peptidic GHS analogs were bioencapsulated in Artemia to be fed to Litopenaeus vanamei post-larvae. For the encapsulation the compounds were added in a 10 mh/L left for an hour, harvested and washed. The animals were fed four times a day for one month while the control group was fed with BSA encapsulated Artemia The effect was measured with an optical micrometer and weighing the animals in a 0.1 mg precision scale.

[11] = system: Doxorubicin induced Dilated Cardiomyopathy; experiment: Prevention of Doxorubicin induced myocardial failure in rats (VEF, forced swimming); type: in vivo, Wistar rats; details: for ventricular ejection fraction (VEF) with respect to the healthy control: rats, Dx 2 mg/kg 8 weeks plus compound ip 500 μg/Kg, placebo VEF drop about 40%; for survival after forced swimming: Dx treated rats, compound ip 500 μg/Kg, 4° C. water 30 minutes, Dx-saline 45%
Experimental: To reproduce the physiopathogenic effects of a Dilated Cardiomyopathy (DCM) female Wistar rats of 160 g were treated with 2 mg/kg Doxorubicin (Dx) during 8 weeks. A group of this rats was also treated in parallel with compounds A221, A228 or A233 intraperitoneally at 500 μg/Kg during the 8 weeks of Dx treatment, another Dx treated group was also receiving saline solution as a placebo, and as a healthy control for the experiment another group of untreated Wistar rats of the same age was used. After the 8 week treatment all the rats were tested with an echocardiogram, to test the ventricular functionality and assess the ventricular ejection fraction (VEF).

[12] = system: Doxorubicin induced Dilated Cardiomyopathy; experiment: Reversion of Doxorubicin induced dilated cardiomyopathy in rats, dose-response; type: in vivo, Wistar rats; details: rats with Dx induced DCM; for mortality in the group respect to placebo or lower concentrations / total VEF recovery: 50 μg/kg; for DCM reversion two weeks after the treatment: 50 μg/kg to 500 μg/kg; for DCM reversion at 4 weeks of treatment: 100 to 500 μg/kg; for VEF recovery at lower concentrations: doses lower than 50 μg/kg
Experimental: To assess if there is any dose-response effect and reversion of DCM, Wistar rats were subjected to a treatment with 2 mg/kg of Doxorubicin (Dx) for 8 weeks, after the treatment all rats with a VEF drop higher than 40% were selected, divided in groups of n=8 and treated with different doses of compounds A221, A228 or A233 as follows: • 500 μg/kg, • 250 μg/kg, • 100 μg/kg, • 50 μg/kg, • 25 μg/kg, • 10 μg/kg • Saline Solution.
(FIG. 4, a A221, b A228 and c A233).

[13] = differentiated PC12 cells, 72 h incubation, MTT, read-out: IC50 during the NGF deprivation induced neuronal death
[14] = 500 μM hydrogen peroxide, rat cerebellum granular cells, read-out: IC50 during the induced neuronal damage by Hydrogen Peroxide addition to a primary culture of neurons

Compound | pIC50 ([1]; 72 h) | Normalized IGF-I mRNA levels to a non related synthetic peptide control group [3] | Weight Inc. (%), control group growing = 100% [4] | Weight Inc. (%), control group growing = 100% [5] | Lysozyme levels of the treated animals relative to the control group [6] | Size Inc. (%), control group growing = 100% [7] | Weight Inc. (%), control group growing = 100% [7] | higher survival compared with the controls [8] | stimulation in the size [8] | stimulation on the weight [8] | Size Inc. (%), control group growing = 100% [9] | Size Inc. (%), control group growing = 100% [10] | ventricular ejection fraction (VEF) with respect to the healthy control [11] | mortality in the group respect to placebo or lower concentrations [12] | total VEF recovery [12] | DCM reversion two weeks after the treatment [12] | DCM reversion at 4 weeks of treatment [12] | VEF recovery at lower concentrations [12] | pIC50 [1, 13] | pIC50 [2, 14] | also measured
NCC(=O)N[C@@H](CO)C(=O)N[C@H]1CCCCNC(=O)C[C@@H](C(=O)N[C@@H](CO)C(=O)N2CCC[C@H]2C(=O)N[C@@H](CCC(=O)O)C(=O)N[C@@H](Cc2c[nH]cn2)C(=O)N[C@@H](CCC(N)=O)C(=O)O)NC(=O)[C@H](Cc2ccccc2)NC1=O [Compound A221, GSKFDSPEHQ] (H-GSKFDSPEHQ-OH; lactam 3-5; N-terminus and C-terminus assumed) | 5.69 | 1.32 | 98.0% | 97.0% | 1.01 | 112.0% | 120.1% | 20% | 30% | 110% | 130.0% | 130.2% | slightly modified VEF | somehow effective to reduce mortality | not effective for the total VEF recovery | partially reverts DCM | DCM reversion is complete | do not recovered VEF |  |  | pIC50 [2]: 5.74
GKFDLSPEHQ [Compound A233, L-amino acid peptide with internal side-chain cycle, SEC; ID NO: 13] |  | 1.69 | 165.0% | 155.0% | 2.68 | 124.9% | 143.0% | 20% | 30% | 110% | 140.1% | 140.0% | slightly modified VEF | somehow effective to reduce mortality | not effective for the total VEF recovery | partially reverts DCM | DCM reversion is complete | do not recovered VEF | 5.30 | 5.45 | survival after forced swimming [11]: 100%
GKFGDLSPEHQ [Compound A228, L-amino acid peptide with internal side-chain cycle, SEC; ID NO: 8] |  | 1.18 | 130.6% | 132.0% | 1.08 | 118.9% | 128.2% | 20% | 30% | 110% | 140.0% | 140.0% | slightly modified VEF | somehow effective to reduce mortality | not effective for the total VEF recovery | partially reverts DCM | DCM reversion is complete | do not recovered VEF | 5.40 | 5.75 | survival after forced swimming [11]: 100%
HSKGYDLDH [Compound A227, L-amino acid peptide with internal side-chain cycle, SEC; ID NO: 7] |  | 1.28 | 139.9% | 140.6% | 1.52 | 118.5% | 128.6% |  |  |  | 139.0% | 140.0% |  |  |  |  |  |  | 5.51 | 5.65 | 
SSDFKLYWG [Compound A224, L-amino acid peptide with internal side-chain cycle, SEC; ID NO: 4] |  | 1.41 | 132.7% | 130.0% | 1.37 | 116.0% | 127.0% |  |  |  | 131.2% | 130.0% |  |  |  |  |  |  | 5.63 | 5.49 | 
STDFKPFAI [Compound A226, STDFKPFAI] | 5.31 | 1.13 | 122.4% | 120.4% | 1.17 | 112.2% | 120.1% |  |  |  | 130.4% | 132.0% |  |  |  |  |  |  |  |  | pIC50 [2]: 5.45
